# Marks after values point to notes of the source that are not given here.
# Key:
# Type in all cases: in vivo, rat
# [1] = test system: PAN-nephropathic rats; assay: Metabolic cage measurements (24-hour urine, intake, plasma) in PAN-nephropathic rats
# Procedure: A total of thirty-five, male Sprague Dawley rats (approximately 290 grams) were used. Rats were housed in the University of Pittsburgh Medical Center animal care facility (temperature, 22° C.; light cycle, 12 hours; relative humidity, 55%). Animals were fed Pro Lab RMH 3000 rodent diet (PMI Nutrition Inc., St Louis, Mo.) and were given water ad libitum. Institutional guidelines for animal welfare were followed, and the University of Pittsburgh Institutional Animal Care and Use Committee approved experimental protocols.
# Before initiating treatment, and 3, and 6 and 11 weeks into the treatments, animals were placed in metabolic cages and allowed to acclimatize for two days before conducting the 24-hour measurements of urine volume, food and water intake and urinary sodium, potassium, creatinine, and protein excretion. Tail vein blood samples were also taken for measurement of plasma sodium, potassium, albumin and creatinine. Plasma and urine samples were analyzed for sodium and potassium concentrations using a flame photometer (Model IL-943; Instrumentations Laboratory Inc., Lexington, Ma.) and for creatinine concentrations using a creatinine analyzer (Creatinine Analyzer 2, Beckman Instrument, Inc., Fullerton Calif., USA). Total urine proteins were measured by a spectrophotometric assay using bicinchoninic acid reagent (Pierce; Rockford, Ill.) and a modification of Lowry method. Lowry, O. H., et al., J. Biol. Chem. 193: 265 (1951), the disclosure of which is incorporated herein by reference.
# (§1) After baseline metabolic parameters were measured, animals were randomly assigned to receive subcutaneous saline (3 ml/kg; Control group, n=9) or puromycin aminonucleoside (PAN) (75 mg/kg; drug-induced nephrotoxic animals, n=26). PAN is a drug widely used to produce drug-induced nephrotoxicity in laboratory animals. Grond, J., et al., Contributions to Nephrology 60:83 (1988), the disclosure of which is incorporated herein by reference. Injections of PAN (20 mg/kg) were repeated after 2, 4, 8 and 10 weeks of treatment. Three hours after the initial injections, control animals were implanted with osmotic minipumps (model 2ML4, Alza, Palo Alto, Calif.) containing vehicle (polyethylene glycol 400, 2.5 μl/hour), whereas PAN-treated animals were implanted with osmotic minipumps containing either vehicle (PAN group, n=13) or 2-hydroxyestradiol (10 μg/kg/hour, PAN+2OHE group, n=13). Assignment to the PAN and PAN+2OHE groups was random. Six animals in the PAN group and 2 animals in the PAN+2OHE group died during the treatment, and these animals were not used in the final data analysis.
# [2] = test system: PAN-nephropathic rats; assay: Acute measurements of renal hemodynamics and excretory function at 12 weeks; settings: 12 weeks of treatment
# Procedure: as §1
# At 12 weeks into treatment, animals were anesthetized with pentobarbital (45 mg/kg i.p.) and instrumented for measurements of renal hemodynamics and excretory function. Two polyethylene (PE)-50 catheters were inserted into left jugular vein for delivery of supplemental anesthetics and saline infusion (50 μl/min), respectively. Another PE-50 catheter was inserted into left carotid artery and connected to a blood-pressure analyzer (Micro-Med., Inc., Louisville, Ky.) for continuous measurement of blood pressure and heart rate. A PE-10 catheter was inserted into the left ureter to facilitate collection of urine, and a flow probe (Model 1RB; Transonic Systems, Inc., Ithaca, N.Y.) was placed on the left renal artery for determination of renal blood flow, which was used to calculate renal vascular resistance. Next, an infusion of ^14C-inulin (0.035 μCi/20 μl saline/min) was initiated and after 60 minutes, two 30-minute clearance periods were conducted. A mid-point blood sample (300 μl) was collected and plasma and urine ^14C-inulin radioactivity was measured. Renal clearance of ^14C-inulin was calculated as an estimate of glomerular filtration rate.
# [3] = test system: PAN-nephropathic rats; assay: Plasma testosterone radioimmunoassay; settings: 12 weeks of treatment, male rats
# Procedure: An aliquot of mid-point blood sample drawn during the first clearance period was used for testosterone measurements. Plasma testosterone levels were determined by radioimmunoassay using a commercial kit provided by ICN Biomedicals, Inc. (Costa Mesa, Calif.) according to the protocol of the manufacturer.
# [4] = test system: proliferating cell nuclear antigen (PCNA); assay: Glomerular immunohistochemical staining for PCNA, quantitative image analysis; settings: 12 weeks of treatment, kidney sections
# Procedure: (§2) Animals were killed by an overdose of anesthetic and kidneys were removed and weighed. One kidney was fixed in 10% formalin buffer and the second kidney was quick-frozen in liquid nitrogen and stored at −70° C. Kidney tissue samples were sectioned and processed into paraffin blocks for light microscopy. For labeling of collagen IV, renal cortical segments (5 μm) were incubated overnight at 4° C. with rabbit anti-mouse collagen IV antibody (dilution 1/500 ) obtained from Chemicon International Inc. (Temecula, Calif.). A primary monoclonal mouse antibody ( 1/200 dilution; Dako Corporation, Carpenteria, Calif.) was used to label proliferating cell nuclear antigen (PCNA). […] Nonspecific staining was assessed by replacing the primary antibody with phosphate buffered saline. […] Immunochemical staining for collagen IV and PCNA quantitatively was done with a SAMBA 4000 image analyzer (Image Products International, Chantilly, Va.) using specialized computer software (Immuno-Analysis, version 4.1, Microsoft, Richmond, Wash.), a color video camera and a Compaq computer. […] Ten high power fields (×400) were assessed for staining density or positively marked cells for ED-1. […] Staining intensity of positive areas was also assessed (mean optical density) and a mean quick score was then calculated (mean optical density×labeling index).
# [5] = test system: ED1 positive cells; assay: Immunohistochemical staining for ED1 positive cells (macrophage infiltration) in glomeruli and interstitium; settings: 12 weeks of treatment, kidney sections
# Procedure: as §2
# [6] = test system: collagen IV; assay: Glomerular immunohistochemical staining for collagen IV, quantitative image analysis; settings: 12 weeks of treatment, kidney sections
# Procedure: as §2
# [7] = test system: PAN-treated rats; assay: Mortality during 12-week treatment of PAN-treated rats
# Procedure: as §1
smiles,measurement,setting,value
"C[C@]12CC[C@@H]3c4cc(O)c(O)cc4CC[C@H]3[C@@H]1CC[C@@H]2O [2-OHE, 2-hydroxyestradiol]",Body Weight,[1]; 0 wks of treatment (baseline),291 ± 5 g
same,Creatinine Excretion,[1]; 0 wks of treatment (baseline),13.0 ± 1.0 mg/day
same,FE - K+ (fractional excretion of potassium),[1]; 0 wks of treatment (baseline),11.6 ± 1.4%
same,FE - Na+ (fractional excretion of sodium),[1]; 0 wks of treatment (baseline),0.18 ± 0.03%
same,Fluid Intake,[1]; 0 wks of treatment (baseline),5.37 ± 0.25 mL/h/kg
same,Food Intake,[1]; 0 wks of treatment (baseline),76 ± 2 g/kg/day
same,Plasma Cholesterol,[1]; 0 wks of treatment (baseline),51.2 ± 2.2 mg/dL
same,Potassium Excretion,[1]; 0 wks of treatment (baseline),7.54 ± 0.52 mEq/day/kg
same,Sodium Excretion,[1]; 0 wks of treatment (baseline),3.35 ± 0.18 mEq/day/kg
same,Urine Volume,[1]; 0 wks of treatment (baseline),1.68 ± 0.167 mL/h/kg
same,Creatinine Excretion,[1]; 3 wks of treatment,10.9 ± 0.7 mg/day
same,FE - K+ (fractional excretion of potassium),[1]; 3 wks of treatment,32.1 ± 4.4 %
same,FE - Na+ (fractional excretion of sodium),[1]; 3 wks of treatment,0.50 ± 0.10%
same,Fluid Intake,[1]; 3 wks of treatment,7.04 ± 0.667 mL/h/kg
same,Food Intake,[1]; 3 wks of treatment,75 ± 4 g/kg/day
same,Plasma Cholesterol,[1]; 3 wks of treatment,315 ± 39.3 mg/dL
same,Potassium Excretion,[1]; 3 wks of treatment,12.3 ± 0.61 mEq/day/kg
same,Sodium Excretion,[1]; 3 wks of treatment,5.76 ± 0.57 mEq/day/kg
same,Urine Volume,[1]; 3 wks of treatment,3.62 ± 0.292 mL/h/kg
same,Creatinine Excretion,[1]; 6 wks of treatment,9.8 ± 0.7 mg/day
same,FE - K+ (fractional excretion of potassium),[1]; 6 wks of treatment,17.3 ± 2.5 %
same,FE - Na+ (fractional excretion of sodium),[1]; 6 wks of treatment,0.34 ± 0.04%
same,Fluid Intake,[1]; 6 wks of treatment,5.92 ± 0.5 mL/h/kg
same,Food Intake,[1]; 6 wks of treatment,60 ± 5 g/kg/day
same,Plasma Cholesterol,[1]; 6 wks of treatment,248.3 ± 19.3 mg/dL
same,Potassium Excretion,[1]; 6 wks of treatment,9.17 ± 0.63 mEq/day/kg
same,Sodium Excretion,[1]; 6 wks of treatment,4.21 ± 0.43 mEq/day/kg
same,Urine Volume,[1]; 6 wks of treatment,2.99 ± 0.292 mL/h/kg
same,Creatinine Excretion,[1]; 11 wks of treatment,12.8 ± 2.8 mg/day
same,FE - K+ (fractional excretion of potassium),[1]; 11 wks of treatment,29.7 ± 1.7 %
same,FE - Na+ (fractional excretion of sodium),[1]; 11 wks of treatment,0.37 ± 0.04%
same,Fluid Intake,[1]; 11 wks of treatment,6.12 ± 0.583 mL/h/kg
same,Food Intake,[1]; 11 wks of treatment,58 ± 6 g/kg/day
same,Plasma Cholesterol,[1]; 11 wks of treatment,340.6 ± 27.3 mg/dL
same,Potassium Excretion,[1]; 11 wks of treatment,8.36 ± 1.25 mEq/day/kg
same,Sodium Excretion,[1]; 11 wks of treatment,3.12 ± 0.66 mEq/day/kg
same,Urine Volume,[1]; 11 wks of treatment,3.44 ± 0.312 mL/h/kg
same,"Creatinine clearance (in words, FIGS. 1B and 1C)",[1]; chronic treatment,attenuated the decline in creatinine clearance caused by PAN
same,"Plasma creatinine levels (in words, FIG. 1A)",[1]; chronic treatment,attenuated PAN-induced increases in plasma creatinine levels
same,"UPE corrected for creatinine clearance (UPE/CrCl; in words, FIG. 2B)",[1]; chronic treatment,this effect became even more significant
same,"Urinary protein excretion (UPE; in words, FIG. 2A)",[1]; chronic treatment,reduced PAN-induced increases in urinary protein excretion
same,Blood pressure (in words),[2],abolished PAN-induced changes in blood pressure
same,"GFR, inulin clearance (in words)",[2],significantly attenuated PAN-induced changes in GFR
same,Hematocrit,[2],30 ± 3%
same,Left Kidney,[2],2.34 ± 0.09 g
same,Glomerular Filtration Rate,[2]; 14C-inulin clearance,0.54 ± 0.06^b ml/min/g kidney
same,Body Weight,[2]; acute experiment,353 ± 15
same,Mean Blood Pressure,[2]; anesthetized,138.2 ± 4^b mm Hg
same,Renal Blood Flow,[2]; anesthetized,2.80 ± 0.18 ml/min/g kidney
same,Renal Plasma Flow,[2]; anesthetized,1.96 ± 0.12 ml/min/g kidney
same,Renal Vascular Resistance,[2]; anesthetized,58.5 ± 4.5 mm Hg/ml/min/g kid
same,Urine Volume,[2]; anesthetized,3.33 ± 0.26 μl/min/g kidney
same,Plasma testosterone levels,[3],0.91 ± 0.22 ng/mL
same,"Labeling index of glomerular immunoreactive PCNA (in words, FIG. 3)",[4],significantly reduced the labeling index of glomerular immunoreactive PCNA
same,"Number of ED1 positive cells in glomeruli and interstitium (in words, FIG. 4)",[5],significantly (P<0.001) reduced the number of inflammatory cells in glomeruli and in the interstitium
same,"Glomerular collagen IV, labeling index (in words, FIGS. 5 and 6)",[6],significantly reduced the labeling index of glomerular immunoreactive collagen IV
same,Reduction of PAN-induced mortality,[7]; 2-hydroxyestradiol 10 μg/kg/hour by osmotic minipump,66%
same,Animals died during the treatment,[7]; n=13 per group,2 animals
